# Data as given in patent publication US20230295118A1 (EnhancedBio Inc., priority 2022, published 2023).
# Legend:
# Type in all cases: cell-based
# [1] = tested on: mantle cell lymphoma cell (Mino or JeKo-1); assay: Antiproliferative effect, MTS cell viability assay; conditions: 72 h; for IC50: mantle cell lymphoma cell (Mino or JeKo-1), MTS assay, read-out: IC50 (anti-proliferation); for inhibition of cell proliferation of Mino cells: 0-1 μM, result in words
# Procedure, shortened: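 Mino cells treated with compounds at 0, 0.0001, 0.001, 0.01, 0.1, 1 μM for 72 h; palbociclib and abemaciclib as positive controls. Viability by MTS, formazan absorbance read at 490 nm.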
# CDK4 = biological target: T1, CDK4 (Homo sapiens, UniProt P11802); assay: CDK4 degradation (DC50, Dmax)
# T1 construct: endogenous in cells
# T1 sequence (P11802 whole entry): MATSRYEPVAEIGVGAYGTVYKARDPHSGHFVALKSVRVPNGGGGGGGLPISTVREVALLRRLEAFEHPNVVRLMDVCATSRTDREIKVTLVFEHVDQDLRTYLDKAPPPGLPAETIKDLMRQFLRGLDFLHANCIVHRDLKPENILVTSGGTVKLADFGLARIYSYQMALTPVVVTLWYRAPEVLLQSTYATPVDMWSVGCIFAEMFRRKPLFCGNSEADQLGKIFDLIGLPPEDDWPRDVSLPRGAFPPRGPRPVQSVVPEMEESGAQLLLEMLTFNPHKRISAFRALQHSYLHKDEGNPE
# CDK6 = biological target: T2, CDK6 (Homo sapiens, UniProt Q00534); assay: CDK6 degradation (DC50, Dmax)
# T2 construct: endogenous in cells
# T2 sequence (Q00534 whole entry): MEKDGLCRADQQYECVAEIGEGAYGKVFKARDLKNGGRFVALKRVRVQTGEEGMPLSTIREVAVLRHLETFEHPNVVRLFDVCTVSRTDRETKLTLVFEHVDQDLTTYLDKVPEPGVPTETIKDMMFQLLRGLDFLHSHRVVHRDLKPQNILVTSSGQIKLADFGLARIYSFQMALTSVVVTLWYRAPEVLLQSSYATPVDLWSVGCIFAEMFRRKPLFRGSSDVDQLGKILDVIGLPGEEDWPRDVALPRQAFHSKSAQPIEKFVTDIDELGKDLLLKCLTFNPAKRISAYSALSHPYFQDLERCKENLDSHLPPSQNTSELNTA
SMILES,IC50 [1],DC50 (CDK4),Dmax (CDK4),DC50 (CDK6),Dmax (CDK6),inhibition of cell proliferation of Mino cells [1]
"CC(=O)c1c(C)c2cnc(Nc3ccc(N4CCN(CCCCNc5ccc6c(c5)C(=O)N(C5CCC(=O)NC5=O)C6=O)CC4)cn3)nc2n(C2CCCC2)c1=O (stereo not shown) [Compound 53, 5-((4-(4-(6-((6-acetyl-8-cyclopentyl-5-methyl-7-oxo-7,8-dihydropyrido[2,3-d]pyrimidin-2-yl)amino)pyridin-3-yl)piperazin-1-yl)butyl)amino)-2-(2,6-dioxopiperidin-3-yl)isoindoline-1,3-dione]",< 50 nM,50 to 200 nM,> 60%,50 to 200 nM,> 80%,–
"CC(=O)c1c(C)c2cnc(Nc3ccc(N4CCN(CCCCNc5ccc6c(c5)CN(C5CCC(=O)NC5=O)C6=O)CC4)cn3)nc2n(C2CCCC2)c1=O (stereo not shown) [Compound 54, 3-(5-((4-(4-(6-((6-acetyl-8-cyclopentyl-5-methyl-7-oxo-7,8-dihydropyrido[2,3-d]pyrimidin-2-yl)amino)pyridin-3-yl)piperazin-1-yl)butyl)amino)-1-oxoisoindolin-2-yl)piperidine-2,6-dione]",< 50 nM,50 to 200 nM,> 60%,50 to 200 nM,> 60%,–
"CC(=O)c1c(C)c2cnc(Nc3ccc(N4CCN(CCN(C)c5ccc6c(c5)C(=O)N(C5CCC(=O)NC5=O)C6=O)CC4)cn3)nc2n(C2CCCC2)c1=O (stereo not shown) [Compound 55, 5-((2-(4-(6-((6-acetyl-8-cyclopentyl-5-methyl-7-oxo-7,8-dihydropyrido[2,3-d]pyrimidin-2-yl)amino)pyridin-3-yl)piperazin-1-yl)ethyl)(methyl)amino)-2-(2,6-dioxopiperidin-3-yl) isoindoline-1,3-dione]",50 to 200 nM,50 to 200 nM,> 60%,50 to 200 nM,> 60%,–
"CC(=O)c1c(C)c2cnc(Nc3ccc(N4CCN(CCN(C)c5ccc6c(c5)CN(C5CCC(=O)NC5=O)C6=O)CC4)cn3)nc2n(C2CCCC2)c1=O (stereo not shown) [Compound 56, 3-(5-((2-(4-(6-((6-acetyl-8-cyclopentyl-5-methyl-7-oxo-7,8-dihydropyrido[2,3-d]pyrimidin-2-yl)amino)pyridin-3-yl)piperazin-1-yl)ethyl)(methyl)amino)-1-oxoisoindolin-2-yl)piperidine-2,6-dione]",50 to 200 nM,50 to 200 nM,> 60%,50 to 200 nM,> 60%,–
"CC(=O)c1c(C)c2cnc(Nc3ccc(N4CCN(CCCN(C)c5ccc6c(c5)C(=O)N(C5CCC(=O)NC5=O)C6=O)CC4)cn3)nc2n(C2CCCC2)c1=O (stereo not shown) [Compound 57, 5-((3-(4-(6-((6-acetyl-8-cyclopentyl-5-methyl-7-oxo-7,8-dihydropyrido[2,3-d]pyrimidin-2-yl)amino)pyridin-3-yl)piperazin-1-yl)propyl)(methyl)amino)-2-(2,6-dioxopiperidin-3-yl)isoindoline-1,3-dione]",50 to 200 nM,50 to 200 nM,> 60%,50 to 200 nM,> 60%,–
"CC(=O)c1c(C)c2cnc(Nc3ccc(N4CCN(CCCN(C)c5ccc6c(c5)CN(C5CCC(=O)NC5=O)C6=O)CC4)cn3)nc2n(C2CCCC2)c1=O (stereo not shown) [Compound 58, 3-(5-((3-(4-(6-((6-acetyl-8-cyclopentyl-5-methyl-7-oxo-7,8-dihydropyrido[2,3-d]pyrimidin-2-yl)amino)pyridin-3-yl)piperazin-1-yl)propyl) (methyl)amino)-1-oxoisoindolin-2-yl) piperidine-2,6-dione]",50 to 200 nM,50 to 200 nM,> 60%,50 to 200 nM,> 60%,–
"CC(=O)c1c(C)c2cnc(Nc3ccc(N4CCN(CCCCN(C)c5ccc6c(c5)C(=O)N(C5CCC(=O)NC5=O)C6=O)CC4)cn3)nc2n(C2CCCC2)c1=O (stereo not shown) [Compound 59, 5-((4-(4-(6-((6-acetyl-8-cyclopentyl-5-methyl-7-oxo-7,8-dihydropyrido[2,3-d]pyrimidin-2-yl)amino)pyridin-3-yl)piperazin-1-yl)butyl)(methyl)amino)-2-(2,6-dioxopiperidin-3-yl) isoindoline-1,3-dione]",50 to 200 nM,50 to 200 nM,> 60%,50 to 200 nM,> 60%,–
"CC(=O)c1c(C)c2cnc(Nc3ccc(N4CCN(CCCCN(C)c5ccc6c(c5)CN(C5CCC(=O)NC5=O)C6=O)CC4)cn3)nc2n(C2CCCC2)c1=O (stereo not shown) [Compound 60, 3-(5-((4-(4-(6-((6-acetyl-8-cyclopentyl-5-methyl-7-oxo-7,8-dihydropyrido[2,3-d]pyrimidin-2-yl)amino)pyridin-3-yl)piperazin-1-yl)butyl)(methyl)amino)-1-oxoisoindolin-2-yl) piperidine-2,6-dione]",50 to 200 nM,50 to 200 nM,> 60%,50 to 200 nM,> 60%,–
"CC(=O)c1c(C)c2cnc(Nc3ccc(N4CCN(CCN(C)c5cccc6c5C(=O)N(C5CCC(=O)NC5=O)C6=O)CC4)cn3)nc2n(C2CCCC2)c1=O (stereo not shown) [Compound 61, 4-((2-(4-(6-((6-acetyl-8-cyclopentyl-5-methyl-7-oxo-7,8-dihydropyrido[2,3-d]pyrimidin-2-yl)amino)pyridin-3-yl)piperazin-1-yl)ethyl)(methyl)amino)-2-(2,6-dioxopiperidin-3-yl) isoindoline-1,3-dione]",50 to 200 nM,50 to 200 nM,> 60%,50 to 200 nM,> 60%,–
"CC(=O)c1c(C)c2cnc(Nc3ccc(N4CCN(CCCNc5cccc6c5C(=O)N(C5CCC(=O)NC5=O)C6=O)CC4)cn3)nc2n(C2CCCC2)c1=O (stereo not shown) [Compound 62, 4-((3-(4-(6-((6-acetyl-8-cyclopentyl-5-methyl-7-oxo-7,8-dihydropyrido[2,3-d]pyrimidin-2-yl)amino)pyridin-3-yl)piperazin-1-yl)propyl)amino)-2-(2,6-dioxopiperidin-3-yl) isoindoline-1,3-dione]",< 50 nM,50 to 200 nM,> 80%,50 to 200 nM,> 80%,–

# Further lines, with some results ahead:
IC50 [1],DC50 (CDK4),Dmax (CDK4),DC50 (CDK6),Dmax (CDK6),SMILES,inhibition of cell proliferation of Mino cells [1]
< 50 nM,50 to 200 nM,> 80%,< 50 nM,> 80%,"CC(=O)c1c(C)c2cnc(Nc3ccc(N4CCN(C5CCN(c6ccc7c(c6)C(=O)N(C6CCC(=O)NC6=O)C7=O)CC5)CC4)cn3)nc2n(C2CCCC2)c1=O (stereo not shown) [Compound 63, 5-(4-(4-(6-((6-acetyl-8-cyclopentyl-5-methyl-7-oxo-7,8-dihydropyrido[2,3-d]pyrimidin-2-yl)amino)pyridin-3-yl)piperazin-1-yl)piperidin-1-yl)-2-(2,6-dioxopiperidin-3-yl)isoindoline-1,3-dione]",dose-dependent inhibition of cell proliferation
< 50 nM,50 to 200 nM,> 80%,50 to 200 nM,> 80%,"CC(=O)c1c(C)c2cnc(Nc3ccc(N4CCN(C5CCN(c6ccc7c(c6)CN(C6CCC(=O)NC6=O)C7=O)CC5)CC4)cn3)nc2n(C2CCCC2)c1=O (stereo not shown) [Compound 64, 3-(5-(4-(4-(6-((6-acetyl-8-cyclopentyl-5-methyl-7-oxo-7,8-dihydropyrido[2,3-d]pyrimidin-2-yl)amino)pyridin-3-yl)piperazin-1-yl)piperidin-1-yl)-1-oxoisoindolin-2-yl)piperidine-2,6-dione]",–
< 50 nM,< 50 nM,> 80%,< 50 nM,> 80%,"CC(=O)c1c(C)c2cnc(Nc3ccc(N4CCN(CC5CCN(c6ccc7c(c6)C(=O)N(C6CCC(=O)NC6=O)C7=O)CC5)CC4)cn3)nc2n(C2CCCC2)c1=O (stereo not shown) [Compound 65, 5-(4-((4-(6-((6-acetyl-8-cyclopentyl-5-methyl-7-oxo-7,8-dihydropyrido[2,3-d]pyrimidin-2-yl)amino)pyridin-3-yl)piperazin-1-yl)methyl)piperidin-1-yl)-2-(2,6-dioxopiperidin-3-yl) isoindoline-1,3-dione]",dose-dependent inhibition of cell proliferation
< 50 nM,50 to 200 nM,> 80%,< 50 nM,> 80%,"CC(=O)c1c(C)c2cnc(Nc3ccc(N4CCN(CC5CCN(c6ccc7c(c6)CN(C6CCC(=O)NC6=O)C7=O)CC5)CC4)cn3)nc2n(C2CCCC2)c1=O (stereo not shown) [Compound 66, 3-(5-(4-((4-(6-((6-acetyl-8-cyclopentyl-5-methyl-7-oxo-7,8-dihydropyrido[2,3-d]pyrimidin-2-yl)amino)pyridin-3-yl)piperazin-1-yl)methyl)piperidin-1-yl)-1-oxoisoindolin-2-yl)piperidine-2,6-dione]",–
< 50 nM,< 50 nM,> 80%,50 to 200 nM,> 80%,"CC(=O)c1c(C)c2cnc(Nc3ccc(N4CCN(CCN5CCN(c6ccc7c(c6)C(=O)N(C6CCC(=O)NC6=O)C7=O)CC5)CC4)cn3)nc2n(C2CCCC2)c1=O (stereo not shown) [Compound 67, 5-(4-(2-(4-(6-((6-acetyl-8-cyclopentyl-5-methyl-7-oxo-7,8-dihydropyrido[2,3-d]pyrimidin-2-yl)amino)pyridin-3-yl)piperazin-1-yl)ethyl)piperazin-1-yl)-2-(2,6-dioxopiperidin-3-yl) isoindoline-1,3-dione]",–
50 to 200 nM,50 to 200 nM,> 60%,50 to 200 nM,> 80%,"CC(=O)c1c(C)c2cnc(Nc3ccc(N4CCN(CCN5CCN(c6ccc7c(c6)CN(C6CCC(=O)NC6=O)C7=O)CC5)CC4)cn3)nc2n(C2CCCC2)c1=O (stereo not shown) [Compound 68, 3-(5-(4-(2-(4-(6-((6-acetyl-8-cyclopentyl-5-methyl-7-oxo-7,8-dihydropyrido[2,3-d]pyrimidin-2-yl)amino)pyridin-3-yl)piperazin-1-yl)ethyl)piperazin-1-yl)-1-oxoisoindolin-2-yl)piperidine-2,6-dione]",–
